pIC50: −log10 of the molar value.
Target: T1, aromatase (CYP19A1) (Homo sapiens, UniProt P11511)
T1 sequence (P11511 1-503): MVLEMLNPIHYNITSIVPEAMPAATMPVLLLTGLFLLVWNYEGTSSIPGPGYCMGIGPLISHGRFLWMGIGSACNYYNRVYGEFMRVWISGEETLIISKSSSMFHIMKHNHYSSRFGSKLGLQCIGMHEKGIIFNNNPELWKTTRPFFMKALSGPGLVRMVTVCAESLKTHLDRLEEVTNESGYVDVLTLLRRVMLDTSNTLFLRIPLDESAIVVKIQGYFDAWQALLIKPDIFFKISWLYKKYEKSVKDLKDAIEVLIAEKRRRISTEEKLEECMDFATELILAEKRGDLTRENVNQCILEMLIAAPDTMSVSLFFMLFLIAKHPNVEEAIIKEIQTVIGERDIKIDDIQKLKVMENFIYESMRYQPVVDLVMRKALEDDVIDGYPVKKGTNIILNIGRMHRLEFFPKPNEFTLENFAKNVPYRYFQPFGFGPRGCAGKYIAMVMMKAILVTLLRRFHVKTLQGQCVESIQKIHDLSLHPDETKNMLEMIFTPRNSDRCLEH
Experiment: tritiated water-release aromatase assay in KGN cells after 24-h exposure
Type: cell-based

CC(C)=CCc1c(O)cc(O)c2c1O[C@H](c1ccc(O)cc1)CC2=O [8-PN, 8-prenylnaringenin]
pIC50: 8.10
